Laboratory results reported in paper PMC8246065 (The EMBO Journal, 2021).

Legend:
[1] = test system: HeLa inducible NOD1 or NOD2 cells; assay: ELISA of IL6/IL8 in supernatants of HeLa inducible NOD1 or NOD2 cells; format: cell-based, human; conditions: for IL6 production upon stressor stimulation: Fig 1A-1D; for IL6 production: lipid 10 µM, Appendix Fig S3E,F; for Effect of inhibitor on IL6 production by cytosolic S1P: inhibitor pretreatment, S1P 10 µM with digitonin (5 µg/ml), Appendix Fig S3A-D; for IL6 production in the presence of dynasore: Fig EV1D,E (S2B-S2E in rebuttal)
Protocol: (§1) To differentiate THP‐1 into macrophage‐like cells, THP‐1 cells were stimulated with 50 ng/ml phorbol 12‐myristate 13‐acetate (Sigma‐Aldrich, P8139) for 24 h and then incubated with fresh medium for another 48 h. […] To induce NOD1 or NOD2 expression, HeLa NOD1 or NOD2 cells were treated with 0.5 µg/ml or 0.25 µg/ml doxycycline for at least 16 h, respectively. All cells have been checked for mycoplasma contamination regularly. Bone marrow‐derived macrophages (BMDMs) were obtained from tibial and femural bones and generated with DMEM containing 20% L929 cell supernatant, 10% FBS, 5% heat‐inactivated horse serum, 1 mM sodium pyruvate, and 2 mM L‐glutamine. For BMDM stimulation experiments, BMDMs were treated with IFN‐γ (20 ng/ml) overnight before stimulation.

[2] = target: T1, NOD1 (Homo sapiens, UniProt Q9Y239); assay: Microscale thermophoresis (MST) binding to purified NOD1-GFP
T1 sequence (Q9Y239 1-953): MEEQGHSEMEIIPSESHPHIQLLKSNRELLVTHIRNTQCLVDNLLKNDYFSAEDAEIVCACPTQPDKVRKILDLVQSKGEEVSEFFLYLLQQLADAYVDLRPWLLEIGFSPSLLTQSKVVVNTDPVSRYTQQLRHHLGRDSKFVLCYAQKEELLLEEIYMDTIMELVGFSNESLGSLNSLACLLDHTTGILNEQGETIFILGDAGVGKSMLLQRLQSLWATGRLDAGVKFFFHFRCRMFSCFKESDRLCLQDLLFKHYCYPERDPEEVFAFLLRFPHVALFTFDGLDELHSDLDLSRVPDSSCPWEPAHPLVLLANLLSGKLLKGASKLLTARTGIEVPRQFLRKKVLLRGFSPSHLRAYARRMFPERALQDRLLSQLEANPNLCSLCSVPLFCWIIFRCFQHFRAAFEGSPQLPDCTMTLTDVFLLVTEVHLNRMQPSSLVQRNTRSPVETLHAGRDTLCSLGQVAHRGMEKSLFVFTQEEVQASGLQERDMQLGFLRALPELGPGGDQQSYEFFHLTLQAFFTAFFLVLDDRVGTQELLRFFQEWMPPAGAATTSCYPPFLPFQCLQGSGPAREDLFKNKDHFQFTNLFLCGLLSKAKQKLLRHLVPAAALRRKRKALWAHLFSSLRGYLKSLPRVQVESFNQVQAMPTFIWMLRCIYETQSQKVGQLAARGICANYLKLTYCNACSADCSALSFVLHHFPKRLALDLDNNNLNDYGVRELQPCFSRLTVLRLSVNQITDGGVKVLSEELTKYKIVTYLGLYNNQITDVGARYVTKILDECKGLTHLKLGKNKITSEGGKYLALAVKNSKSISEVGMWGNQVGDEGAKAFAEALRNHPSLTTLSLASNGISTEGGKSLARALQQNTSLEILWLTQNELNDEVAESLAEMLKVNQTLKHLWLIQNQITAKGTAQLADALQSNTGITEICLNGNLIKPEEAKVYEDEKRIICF
Protocol: (§2) The lysates were incubated with 2 ml GFP‐Trap agarose at 4°C for 4 h. The agarose was collected with Poly‐Prep columns by gravity flow. […] To remove heat shock proteins, columns were further washed with 50 ml wash buffer III (50 mM Tris–HCl, pH 7.5, 150 mM NaCl, 5 mM MgCl2+, 1 mM ATP). To elute the proteins, the agarose was mixed with 2 ml elution buffer (100 mM Glycine, pH 2.5) for 1 min and the eluted proteins were immediately neutralized with 0.2 ml of 1 M Tris, pH 10.5.

[3] = target: NOD2 (Homo sapiens, UniProt Q9HC29); assay: Microscale thermophoresis (MST) binding to purified NOD2-GFP
Protocol: as §2

[4] = test system: HEK293T NOD1/2 KO cells transfected with NOD1 or NOD2 mutants; assay: IL8 ELISA of HEK293T cells transfected with NOD1/NOD2 mutants; format: cell-based, human; conditions: for IL8 production in cells expressing LRR-deficient NOD1/2 (NOD1/2∆LRR): 20 µM with digitonin, 20 h
Protocol: as §1
The mutagenesis was performed with Q5® site‐directed mutagenesis kit (E0554, NEB) according to the manufacturer's instructions. The primers used in this study were as follows: NOD1 E157A F: 5′‐[…]gcg[…]‐3′, NOD1 E157A R: 5′‐[…]‐3′, NOD1 D161A F: 5′‐[…]gcg[…]‐3′, NOD1 D161A R: 5′‐[…]‐3′, NOD1 D203A F: 5′‐[…]gcg[…]‐3′, D203A R: 5′‐[…]‐3′, L218A F: 5′‐[…]gcg[…]‐3′, L218A R: 5′‐[…]‐3′, R237A F: 5′‐[…]gcg[…]‐3′, R237A R: 5′‐[…]‐3′, H257A F: 5′‐[…]gcg[…]‐3′, H257A R: 5′‐[…]‐3′, E267A F: 5′‐[…]gcg[…]‐3′, E267A R: 5′‐[…]‐3′, H290A F: 5′‐[…]gcg[…]‐3′, H290A R: 5′‐[…]‐3′, E306A F: 5′‐[…]gcg[…]‐3′, E306A R: 5′‐[…]‐3′, K324A F: 5′‐[…]gcg[…]‐3′, K324A R: 5′‐[…]‐3′, K328A F: 5′‐[…]gcg[…]‐3′, K328A R: 5′‐[…]‐3′, R340A F: 5′‐[…]gcg[…]‐3′, R340A R: 5′‐[…]‐3′, R344A F: 5′‐[…]gcg[…]‐3′, R344A R: 5′‐[…]‐3′, R350A F: 5′‐[…]gcg[…]‐3′, R350A R: 5′‐[…]‐3′, D372A F: 5′‐[…]gcg[…]‐3′, D372A R: 5′‐[…]‐3′, R373A F: 5′‐[…]gcg[…]‐3′, R373A R: 5′‐[…]‐3′, R399A F: 5′‐[…]gcg[…]‐3′, R399A R: 5′‐[…]‐3′, D423A F: 5′‐[…]gcg[…]‐3′, D423A R: 5′‐[…]‐3′, R435A F: 5′‐5′‐[…]gcg[…]‐3′, R435A R: 5′‐[…]‐3′, Q484A F: 5′‐[…]gcg[…]‐3′, Q484A R: 5′‐[…]‐3′, L495A F: 5′‐[…]gcg[…]‐3′, L495A R: 5′‐[…]‐3′, E514A F: 5′‐[…]gcg[…]‐3′, E514A R: 5′‐[…]‐3′, H517A F: 5′‐[…]gcg[…]‐3′, H517A R: 5′‐[…]‐3′, L540A F: 5′‐[…]gcg[…]‐3′, L540A R: 5′‐[…]‐3′, F544A F: 5′‐[…]gcg[…]‐3′, and F544A R: 5′‐[…]‐3′.

Chain of NOD2 (Q9HC29 whole entry): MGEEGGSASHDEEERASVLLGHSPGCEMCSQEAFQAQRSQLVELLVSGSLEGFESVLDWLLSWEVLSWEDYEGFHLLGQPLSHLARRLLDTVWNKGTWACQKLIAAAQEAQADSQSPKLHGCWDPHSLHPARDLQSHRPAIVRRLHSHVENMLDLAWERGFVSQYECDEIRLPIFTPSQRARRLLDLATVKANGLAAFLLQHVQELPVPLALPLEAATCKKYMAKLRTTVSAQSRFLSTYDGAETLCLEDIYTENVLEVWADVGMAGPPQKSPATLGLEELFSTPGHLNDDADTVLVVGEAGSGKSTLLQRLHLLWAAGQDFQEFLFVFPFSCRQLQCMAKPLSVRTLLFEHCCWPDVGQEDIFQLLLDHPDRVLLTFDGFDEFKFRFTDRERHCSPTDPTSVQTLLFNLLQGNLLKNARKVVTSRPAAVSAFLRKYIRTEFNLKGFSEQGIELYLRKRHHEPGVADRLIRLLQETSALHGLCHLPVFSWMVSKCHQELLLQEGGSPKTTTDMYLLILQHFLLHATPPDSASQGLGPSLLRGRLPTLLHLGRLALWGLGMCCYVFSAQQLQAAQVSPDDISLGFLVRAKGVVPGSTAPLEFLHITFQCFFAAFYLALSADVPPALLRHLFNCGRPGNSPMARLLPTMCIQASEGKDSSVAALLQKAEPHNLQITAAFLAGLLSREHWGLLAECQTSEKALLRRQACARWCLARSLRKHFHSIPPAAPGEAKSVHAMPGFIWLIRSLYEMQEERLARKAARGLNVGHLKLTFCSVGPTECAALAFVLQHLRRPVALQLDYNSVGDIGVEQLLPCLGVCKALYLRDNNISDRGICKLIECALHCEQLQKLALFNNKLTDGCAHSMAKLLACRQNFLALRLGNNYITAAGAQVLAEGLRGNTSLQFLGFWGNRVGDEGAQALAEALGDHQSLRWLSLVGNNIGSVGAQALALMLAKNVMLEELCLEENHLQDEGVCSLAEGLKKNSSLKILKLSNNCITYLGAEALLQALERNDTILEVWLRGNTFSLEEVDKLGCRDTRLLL

`C[C@H]1CCC/C=C/[C@@H]2C[C@H](O)C[C@H]2[C@H](O)/C=C/C(=O)O1` [BFA, brefeldin A] was tested, and the “IL6 production upon stressor stimulation” value [1] was “did not induce IL6 production”.

For `CCCCCCCCCCCCC/C=C/[C@@H](O)[C@H](CO)NC(C)=O` [C2 ceramide], the IL6 production [1] was “did not induce IL6 production”.

For `CCCCCCCCCCCCC/C=C/[C@@H](O)[C@H](CO)NC(=O)CCCCCCCCCCCCCCC` [C16 ceramide], the “Interaction with NOD1 by MST” value ([2]; Fig EV5B) was “not detected”, the IL6 production [1] was “did not induce IL6 production” and the “Interaction with NOD2 by MST” value ([3]; Fig EV5C) was “not detected”.

`Cc1cc(CN)cc(C)c1NC(=O)c1ccc(-c2cc(Cl)ccc2Cl)o1` [CYM50358] was tested, and the “Effect of inhibitor on IL6 production by cytosolic S1P” value (“Effect of inhibitor on IL6 production” for short) [1] was “failed to block”.

With `O=C(N/N=C/c1ccc(O)c(O)c1)c1cc2ccccc2cc1O` [Dynasore] the “Effect of endocytosis inhibition on IL6 production in response to stress stimulations” value ([1]; Dynasore 50 µM) was “not blocked”.

In the case of `CCCCCCCCc1ccc(CCC(N)(CO)CO)cc1` [FTY720], the “Effect of inhibitor on IL6 production” value [1] is reported as “failed to block”.

With `CC(C)(C)S(=O)(=O)c1ccc2nccc(Nc3n[nH]c4ccc(F)cc34)c2c1` [GSK583] the “Effect of inhibitor on IL6 production” value [1] was “abolished”.

For `Cc1nn(C)c2nc(NNC(=O)Nc3c(Cl)cncc3Cl)cc(C(C)C)c12` [JTE013], the “Effect of inhibitor on IL6 production” value [1] was “failed to block”.

With `CC(=O)N[C@@H]1[C@@H](O[C@H](C)C(=O)N[C@@H](C)C(=O)N[C@H](CCC(=O)O)C(N)=O)[C@H](O)[C@@H](CO)O[C@H]1O` [MDP] the “IL8 production in cells expressing LRR-deficient NOD1/2 (NOD1/2∆LRR)” value [4] was “not”, the “IL8 production / activation in HEK293T cells expressing NOD2 1007fs” value ([4]; 20 µM, 48 h, digitonin) was “unresponsive” and the “IL6 production in the presence of dynasore” value (from here on “IL6 production … of dynasore”) ([1]; Dynasore 50 µM) was “impaired”. For the same compound, the “Binding affinity of NOD2 for MDP in the presence or absence of S1P” value ([3]; Fig 6H, S1P 2 µM) was “not affected”.

With `CC(=O)c1ncc([C@@H](O)[C@H](O)[C@H](O)CO)[nH]1` [THI] the “Effect of inhibitor on IL6 production” value [1] was “higher IL6 production”.

In the case of `CCCCCCCCc1cccc(NC(=O)[C@H](N)COP(=O)(O)O)c1` [VPC23019], the “Effect of inhibitor on IL6 production” value [1] is reported as “failed to block”.

With `CCCCCCc1cccc(NC(=O)[C@H](N)CCP(=O)(O)O)c1` [W146] the “Effect of inhibitor on IL6 production” value [1] was “failed to block”.

With `CCCCC[C@H](CC(=O)NO)C(=O)N[C@H](C(=O)N1CCC[C@H]1CO)C(C)C` [actinonin] the “IL6 production … of dynasore” value ([1]; Dynasore 50 µM) was “higher IL6 production”.

For `C=C1[C@@H](C)[C@H]2[C@H](Cc3ccccc3)NC(=O)[C@]23[C@H](OC(C)=O)/C=C/[C@@](C)(O)C(=O)[C@@H](C)C/C=C/[C@H]3[C@@H]1O` [cytochalasin D], the “IL6 production … of dynasore” value ([1]; Dynasore 50 µM) was “higher IL6 production”.

`N[C@H](CCC(=O)N[C@H](CCC[C@H](N)C(=O)O)C(=O)O)C(=O)O` [iE-DAP] was tested, and the “IL8 production in cells expressing LRR-deficient NOD1/2 (NOD1/2∆LRR)” value [4] was “not”, the “Activation (IL8) of NOD1 K328A or H517A” value ([4]; Fig EV5H) was “activated” and the “Binding affinity of NOD1 for iE-DAP in the presence or absence of S1P” value ([2]; Fig 6G, S1P 2 µM) was “not affected”. For the same compound, the “IL6 production … of dynasore” value ([1]; Dynasore 50 µM) was “impaired”.

In the case of `CC[C@@]1([C@@H]2O[C@@H]([C@H]3O[C@@](O)(CO)[C@H](C)C[C@@H]3C)C[C@@H]2C)CC[C@H]([C@]2(C)CC[C@]3(C[C@H](O)[C@@H](C)[C@@H]([C@@H](C)[C@@H](OC)[C@H](C)C(=O)O)O3)O2)O1` [monensin], the “IL6 production upon stressor stimulation” value [1] is reported as “did not induce IL6 production”.

In the case of `COC(=O)Nc1nc2ccc(C(=O)c3cccs3)cc2[nH]1` [nocodazole], the “IL6 production … of dynasore” value ([1]; Dynasore 50 µM) is reported as “higher IL6 production”.

In the case of `CC(=O)O[C@H]1C(=O)[C@@]2(C)[C@H]([C@H](OC(=O)c3ccccc3)[C@]3(O)C[C@H](OC(=O)[C@H](O)[C@@H](NC(=O)c4ccccc4)c4ccccc4)C(C)=C1C3(C)C)[C@]1(OC(C)=O)CO[C@@H]1C[C@@H]2O` [paclitaxel], the “IL6 production … of dynasore” value ([1]; Dynasore 50 µM) is reported as “higher IL6 production”.

With `CCCCCCCCCCCCC/C=C/[C@@H](O)[C@@H](N)CO` [sphingosine] the IL6 production [1] was “did not induce IL6 production”.

pertussis toxin was tested, and the “Effect of inhibitor on IL6 production” value [1] was “failed to block”.
